Patent US12435087B2, “Modulators of DCN-1 and methods of use thereof” (Cellarity, Inc., priority 2023, dated 2025)
Where two headings read alike, the source gives them in different places.

Biological target: DCN1 (DCUND1) protein PONY domain (Homo sapiens (Human), UniProt Q96GG9)
Test: TR-FRET assay (binding to DCN-1, displacement of FAM-labeled probe)
How it was run: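 Compounds read at 1, 5 and 24 h, 0.1% final DMSO, by TR-FRET between terbium-streptavidin on biotinylated DCN1 PONY domain (E. coli) and a FAM-tagged non-covalent inhibitor probe. Two setups used, 5 nM protein with 20 nM labelled probe, or 0.31 nM protein with 100 nM labelled plus 800 nM unlabelled probe; buffer had TritonX and 200 mM NaCl. % activity relative to high (with probe) and low (without probe) controls.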

[1] = 24 hr after treatment with compound, read-out: TR FRET IC50 24 hr
[2] = TR FRET IC50 1 hr (nM), 1 hr after treatment with compound
[3] = read-out: TR FRET IC50 1 hr, 1 hr after treatment with compound

Sequence of DCN1 (DCUND1) protein PONY domain (Q96GG9 60-248): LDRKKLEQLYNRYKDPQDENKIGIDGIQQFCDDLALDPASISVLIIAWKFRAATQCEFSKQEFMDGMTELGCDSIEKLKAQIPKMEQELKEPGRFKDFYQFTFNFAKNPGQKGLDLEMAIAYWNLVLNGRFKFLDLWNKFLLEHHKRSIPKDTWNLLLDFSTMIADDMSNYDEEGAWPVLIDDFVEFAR

Compound: C=C(CN1CC(F)(F)C1)C(=O)NCc1cccc([C@@H]2c3cnn(-c4ccccc4)c3N(CC)C(=O)[C@H]2NC(=O)c2nccc(C(F)(F)F)n2)c1 [Compound I-261]
- IC50 [1]: ≤ 200 nM
- IC50 [2]: 200 to 1000 nM

Compound: CCN1C(=O)[C@@H](NC(=O)c2nccc(C(F)(F)F)n2)[C@H](c2cccc(CN3CC=CS3(=O)=O)c2)c2cnn(-c3ccccc3)c21 [Compound I-263, N-((4R,5S)-4-(3-((1,1-dioxidoisothiazol-2 (3H)-yl)methyl)phenyl)-7-ethyl-6-oxo-1-phenyl-4,5,6,7-tetrahydro-1H-pyrazolo[3,4-b]pyridin-5-yl)-4-(trifluoromethyl)pyrimidine-2-carboxamide]
- IC50 [1]: 1000 to 3000 nM
- IC50 [2]: 1000 to 3000 nM

Compound: C=C(CN1CCCC1)C(=O)NCc1cccc([C@@H]2c3cnn(-c4ccccc4)c3N(CC)C(=O)[C@H]2NC(=O)c2cccc(C(F)(F)F)c2)c1 [Compound I-264]
- IC50 [1]: ≤ 200 nM
- IC50 [3]: ≤ 200 nM

Compound: C=C(CN1CCOCC1)C(=O)NCc1cccc([C@@H]2c3cnn(-c4ccccc4)c3N(CC)C(=O)[C@H]2NC(=O)c2ccnn2C)c1 [Compound I-266]
- IC50 [1]: 1000 to 3000 nM
- IC50 [2]: 1000 to 3000 nM

Compound: C=C(C(=O)NCc1cccc([C@@H]2c3cnn(-c4ccccc4)c3N(CC)C(=O)[C@H]2NC(=O)c2cccc(C(F)F)c2)c1)C(C)N(C)C1COC1 (stereo partly shown) [Compound I-277]
- IC50 [1]: ≤ 200 nM
- IC50 [3]: ≤ 200 nM

Compound: C=C(C(=O)NCc1cccc([C@@H]2c3cnn(-c4ccccc4)c3N(CC)C(=O)[C@H]2NC(=O)c2csc(C)n2)c1)C(C)N(C)C1COC1 (stereo partly shown) [Compound I-278]
- IC50 [1]: ≤ 200 nM
- IC50 [3]: ≤ 200 nM

Compound: C=C(CN1CC2(COC2)C1)C(=O)NCc1cccc([C@@H]2c3c(C)nn(-c4ccccc4)c3N(CC)C(=O)[C@H]2NC(=O)c2cccc(C(F)(F)F)c2)c1 [Compound I-283]
- IC50 [1]: ≤ 200 nM
- IC50 [3]: ≤ 200 nM

Compound: C/C=C(\CN1CCOCC1)C(=O)NCc1cccc([C@@H]2c3cnn(-c4ccccc4)c3N(CC)C(=O)[C@H]2NC(=O)c2ccn(C(F)(F)F)n2)c1 [Compound I-284]
- IC50 [1]: ≤ 200 nM
- IC50 [2]: 1000 to 3000 nM

Compound: C=C(CN1CCOCC1)C(=O)NCc1cccc([C@H]2c3c(C)nn(-c4ccccc4)c3N(CC)C(=O)[C@@H]2NC(=O)c2cccc(C(F)(F)F)c2)c1 [Compound I-285]
- IC50 [1]: ≤ 200 nM
- IC50 [2]: 1000 to 3000 nM

Compound: C=C(C(=O)N(C)Cc1cccc([C@@H]2c3cnn(-c4ccccc4)c3N(CC)C(=O)[C@H]2NC(=O)c2ccn(C3CC3)n2)c1)C(C)N1CC2CC(C1)O2 (stereo partly shown) [Compound I-286]
- IC50 [1]: ≤ 200 nM
- IC50 [2]: 1000 to 3000 nM

Compound: C=C(C(=O)NCc1cccc([C@@H]2c3cnn(-c4ccccc4)c3N(CC)C(=O)[C@H]2NC(=O)c2ccn(C(F)(F)F)n2)c1)C(C)N1CC2CC(C1)O2 (stereo partly shown) [Compound I-287]
- IC50 [1]: ≤ 200 nM
- IC50 [3]: ≤ 200 nM

Compound: C/C=C(\CN1CCN(C2COC2)CC1)C(=O)NCc1cccc([C@@H]2c3cnn(-c4ccccc4)c3N(CC)C(=O)[C@H]2NC(=O)c2ccn(C3CC3)n2)c1 [Compound I-288]
- IC50 [1]: ≤ 200 nM
- IC50 [2]: 200 to 1000 nM

Compound: C=C(CN1C2CCC1COC2)C(=O)NCc1cccc([C@@H]2c3cnn(-c4ccccc4)c3N(CC)C(=O)[C@H]2NC(=O)c2cccc(C(F)(F)F)c2)c1 [Compound I-289]
- IC50 [1]: ≤ 200 nM
- IC50 [3]: ≤ 200 nM

Compound: C=C(CN1CC2CC(C1)O2)C(=O)NCc1cccc([C@@H]2c3cnn(-c4ccccc4)c3N(CC)C(=O)[C@H]2NC(=O)c2cccc(C(F)(F)F)c2)c1 [Compound I-290]
- IC50 [1]: ≤ 200 nM
- IC50 [3]: ≤ 200 nM

Compound: C=C(CN1CC(O)C1)C(=O)NCc1cccc([C@@H]2c3cnn(-c4ccccc4)c3N(CC)C(=O)[C@H]2NC(=O)c2cccc(C(F)(F)F)c2)c1 [Compound I-291]
- IC50 [1]: ≤ 200 nM
- IC50 [3]: ≤ 200 nM

Compound: C=C(CN1CC2CCC(C1)O2)C(=O)NCc1cccc([C@@H]2c3cnn(-c4ccccc4)c3N(CC)C(=O)[C@H]2NC(=O)c2nccc(C(F)(F)F)n2)c1 [Compound I-292]
- IC50 [1]: ≤ 200 nM
- IC50 [3]: ≤ 200 nM

Compound: C=C(CN1CC2CCC1CO2)C(=O)NCc1cccc([C@@H]2c3cnn(-c4ccccc4)c3N(CC)C(=O)[C@H]2NC(=O)c2cccc(C(F)(F)F)c2)c1 (stereo partly shown) [Compound I-293]
- IC50 [1]: ≤ 200 nM
- IC50 [3]: ≤ 200 nM
